Measured values taken from paper PMC6691788, “Design and synthesis of phthalazine-based compounds as potent anticancer agents with potential antiangiogenic activity via VEGFR-2 inhibition” (Journal of Enzyme Inhibition and Medicinal Chemistry, 2019).

Key:
NCI-H23 = experiment: NCI 60 cell panel SRB screen; format: cell-based; settings: Homo sapiens
ACHN = experiment: NCI 60 cell panel SRB screen; format: cell-based; settings: Homo sapiens
T-47D = experiment: NCI 60 cell panel SRB screen; format: cell-based; settings: Homo sapiens, T47D
HOP-62 = experiment: NCI 60 cell panel SRB screen; format: cell-based; settings: Homo sapiens
OVCAR-8 = experiment: NCI 60 cell panel SRB screen; format: cell-based; settings: Homo sapiens
RPMI-8226 = experiment: NCI 60 cell panel SRB screen; format: cell-based; settings: Homo sapiens
A549/ATCC = experiment: NCI 60 cell panel SRB screen; format: cell-based; settings: Homo sapiens
NCI-H226 = experiment: NCI 60 cell panel SRB screen; format: cell-based; settings: Homo sapiens
SNB-19 = experiment: NCI 60 cell panel SRB screen; format: cell-based; settings: Homo sapiens
UO-31 = experiment: NCI 60 cell panel SRB screen; format: cell-based; settings: Homo sapiens
MDA-MB 231/ATCC = experiment: NCI 60 cell panel SRB screen; format: cell-based; settings: Homo sapiens
NCI-H522 = experiment: NCI 60 cell panel SRB screen; format: cell-based; settings: Homo sapiens
MCF7 = experiment: NCI 60 cell panel SRB screen; format: cell-based; settings: Homo sapiens
full NCI 60 cell panel = experiment: NCI 60 cell panel SRB screen, whole panel; format: cell-based, human; settings: Homo sapiens, 60 cell
K-562 = experiment: NCI 60 cell panel SRB screen; format: cell-based; settings: Homo sapiens, K562
SF-295 = experiment: NCI 60 cell panel SRB screen; format: cell-based; settings: Homo sapiens
PC-3 = experiment: NCI 60 cell panel SRB screen; format: cell-based; settings: Homo sapiens
NCI/ADR-RES = experiment: NCI 60 cell panel SRB screen; format: cell-based; settings: Homo sapiens
HCC-2998 = experiment: NCI 60 cell panel SRB screen; format: cell-based; settings: Homo sapiens
[1] = 5 log dose, 48 h, read-out: LC50 (the source's name)
[2] = single dose 10 μM, read-out: percent cell growth promotion

With `Clc1ccc(Nc2nnc(COc3ccccc3)c3ccccc23)cc1` [Compound 17a, N-(4-Chlorophenyl)-4-(phenoxymethyl)phthalazin-1-amine] the GI50 (NCI-H23; NCI-H23, 5 log dose) was 1.56 µM, the IC (TGI) (NCI-H23; NCI-H23, 5 log dose) was 7.87 µM and the CC50 (NCI-H23; NCI-H23, 5 log dose, 48 h, read-out: LC50 (the source's name)) was greater than 25 µM. For the same molecule, the activity at 10 µM (NCI-H23; NCI-H23, single dose 10 μM, read-out: percent cell growth promotion) was 4.18%, the GI50 (ACHN; 5 log dose) was 2.35 µM and the IC (TGI) (ACHN; 5 log dose) was greater than 25 µM. For the same molecule, the CC50 (ACHN; [1]) was greater than 25 µM, the activity at 10 µM (ACHN; [2]) was 3.37% and the GI50 (T-47D) was 0.88 µM. The IC (TGI) (T-47D; read-out: TGI) was 8.44 µM, the activity at 10 µM (T-47D; read-out: percent cell growth promotion) was -5.86% and the CC50 (T-47D; T-47D, 5 log dose, 48 h, read-out: LC50 (the source's name)) was greater than 25 µM. The GI50 (HOP-62; HOP-62, 5 log dose) was 2.51 µM, the IC (TGI) (HOP-62; HOP-62, 5 log dose) was 7.74 µM and the CC50 (HOP-62; HOP-62, 5 log dose, 48 h, read-out: LC50 (the source's name)) was 23.9 µM. The activity at 10 µM (HOP-62; HOP-62, single dose 10 μM, read-out: percent cell growth promotion) was 13.1%, the GI50 (OVCAR-8; OVCAR-8, 5 log dose) was 3.49 µM and the IC (TGI) (OVCAR-8; OVCAR-8, 5 log dose) was 15 µM. For the same molecule, the CC50 (OVCAR-8; OVCAR-8, 5 log dose, 48 h, read-out: LC50 (the source's name)) was greater than 25 µM, the activity at 10 µM (OVCAR-8; OVCAR-8, single dose 10 μM, read-out: percent cell growth promotion) was 5.02% and the GI50 (RPMI-8226; RPMI-8226, 5 log dose) was 1.37 µM. It also gave an IC (TGI) (RPMI-8226; RPMI-8226, 5 log dose) of 6.96 µM, a CC50 (RPMI-8226; RPMI-8226, 5 log dose, 48 h, read-out: LC50 (the source's name)) greater than 25 µM and an activity at 10 µM (RPMI-8226; RPMI-8226, single dose 10 μM, read-out: percent cell growth promotion) of -25.3%. It also gave a GI50 (A549/ATCC; 5 log dose) of 2.87 µM, an IC (TGI) (A549/ATCC; 5 log dose) of 12.3 µM and an LC50 (concentration killing 50% of cells) (A549/ATCC; 5 log dose, 48 h) greater than 25 µM. The activity at 10 µM (A549/ATCC; [2]) was 4.64%, the GI50 (NCI-H226; NCI-H226, 5 log dose) was 1.56 µM and the IC (TGI) (NCI-H226; NCI-H226, 5 log dose) was 6.58 µM. It also gave a CC50 (NCI-H226; NCI-H226, 5 log dose, 48 h, read-out: LC50 (the source's name)) of 21.7 µM, an activity at 10 µM (NCI-H226; NCI-H226, single dose 10 μM, read-out: percent cell growth promotion) of 1.78% and a GI50 (SNB-19; SNB-19, 5 log dose) of 3.2 µM. The IC (TGI) (SNB-19; SNB-19, 5 log dose) was 12 µM, the CC50 (SNB-19; SNB-19, 5 log dose, 48 h, read-out: LC50 (the source's name)) was greater than 25 µM and the activity at 10 µM (SNB-19; SNB-19, single dose 10 μM, read-out: percent cell growth promotion) was 21.9%. It also gave a GI50 (UO-31; UO-31, 5 log dose) of 0.72 µM, an IC (TGI) (UO-31; UO-31, 5 log dose) of 5.2 µM and a CC50 (UO-31; UO-31, 5 log dose, 48 h, read-out: LC50 (the source's name)) of 23.9 µM. It also gave an activity at 10 µM (UO-31; UO-31, single dose 10 μM, read-out: percent cell growth promotion) of -12.3%, a GI50 (MDA-MB 231/ATCC; MDA-MB-231) of 1.28 µM and an IC (TGI) (MDA-MB 231/ATCC; MDA-MB-231, read-out: TGI) of 6.9 µM. It also gave an activity at 10 µM (MDA-MB 231/ATCC; MDA-MB-231, read-out: percent cell growth promotion) of 11.4%, a CC50 (MDA-MB 231/ATCC; MDA-MB-231, MDA-MDA 231/ATCC, 5 log dose, 48 h, read-out: LC50 (the source's name)) of 24.8 µM and a GI50 (NCI-H522; NCI-H522, 5 log dose) of 0.35 µM. For the same molecule, the IC (TGI) (NCI-H522; NCI-H522, 5 log dose) was 4.04 µM, the CC50 (NCI-H522; NCI-H522, 5 log dose, 48 h, read-out: LC50 (the source's name)) was 16.7 µM and the activity at 10 µM (NCI-H522; NCI-H522, single dose 10 μM, read-out: percent cell growth promotion) was -17.4%. It also gave a GI50 (MCF7; MCF7) of 1.18 µM, an IC (TGI) (MCF7; MCF7, read-out: TGI) of 6.07 µM and an activity at 10 µM (MCF7; MCF7, read-out: percent cell growth promotion) of 1.31%. The CC50 (MCF7; MCF7, 5 log dose, 48 h, read-out: LC50 (the source's name)) was 19.8 µM, the activity at 10 µM (full NCI 60 cell panel; mean over the panel, single dose 10 μM, read-out: Mean percent cell growth promotion) was -4.07% and the inhibition at 10 µM (full NCI 60 cell panel; single dose 10 µM, read-out: cell growth inhibition against various cell lines) was greater than 90%. For the same molecule, the GI50 (K-562; K-562, 5 log dose) was 1.85 µM, the IC (TGI) (K-562; K-562, 5 log dose) was 11.9 µM and the CC50 (K-562; K-562, 5 log dose, 48 h, read-out: LC50 (the source's name)) was greater than 25 µM. It also gave an activity at 10 µM (K-562; K-562, single dose 10 μM, read-out: percent cell growth promotion) of 2.77%, a GI50 (SF-295; SF-295, 5 log dose) of 1.65 µM and an IC (TGI) (SF-295; SF-295, 5 log dose) of 6.7 µM. It also gave a CC50 (SF-295; SF-295, 5 log dose, 48 h, read-out: LC50 (the source's name)) of 20.5 µM, an activity at 10 µM (SF-295; SF-295, single dose 10 μM, read-out: percent cell growth promotion) of -1.11% and a GI50 (PC-3; PC-3, 5 log dose) of 1.3 µM. For the same molecule, the IC (TGI) (PC-3; PC-3, 5 log dose) was 10.1 µM, the CC50 (PC-3; PC-3, 5 log dose, 48 h, read-out: LC50 (the source's name)) was greater than 25 µM and the activity at 10 µM (PC-3; PC-3, single dose 10 μM, read-out: percent cell growth promotion) was -0.2%. For the same molecule, the GI50 (NCI/ADR-RES; 5 log dose) was 2.62 µM, the IC (TGI) (NCI/ADR-RES; 5 log dose) was 16.6 µM and the CC50 (NCI/ADR-RES; [1]) was greater than 25 µM. For the same molecule, the activity at 10 µM (NCI/ADR-RES; [2]) was -1.13%, the GI50 (HCC-2998; HCC-2998, 5 log dose) was 3.81 µM and the IC (TGI) (HCC-2998; HCC-2998, 5 log dose) was 8.36 µM. It also gave an LC50 (50% lethal concentration) (HCC-2998; HCC-2998, 5 log dose, 48 h) of 18.3 µM and an activity at 10 µM (HCC-2998; HCC-2998, single dose 10 μM, read-out: percent cell growth promotion) of 8.55%.
